In PubChem BioAssay (NCI) one finds TGI and GI50 data, which are given here for eleven compounds.

Among the test systems are SK-MEL-5 melanoma; NCI-H460 lung; EKVX NSCLC; NCI-H522 lung; CCRF-CEM leukemia; HL-60(TB) leukemia; A549 NSCLC; A498 renal; SK-OV-3 ovarian.
Test in all cases: DTP human tumour cell line panel, 48 h

Where “and” joins values, the source holds several entries; their conditions need not be identical. Equal entries are not always repeated.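 Five compound concentrations were applied to cells in 96-well plates for 48 hours; endpoints were derived by simple linear interpolation of the resulting dose-response curve. GI50 = concentration required for 50% inhibition of growth. At the TGI there is no net growth.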

In the case of `CC(C)C1C(=O)N2CCCC2C2(O)OC(NC(=O)C3C=C4c5cccc6[nH]cc(c56)CC4N(C)C3)(C(C)C)C(=O)N12` (stereo unspecified), the TGI (commonly the concentration at which net growth stops) in the experiment on SK-MEL-5 melanoma stood at 57.9 µM; in the experiment on NCI-H460 lung, 39.2 µM; with EKVX NSCLC it was 73.1 µM; in the experiment with NCI-H522 lung it was 74.5 µM; in the experiment with CCRF-CEM leukemia, 91.3 µM; in the experiment on HL-60(TB) leukemia, 48.5 µM. In the experiment on A549 NSCLC, this compound showed a TGI of 67.3 µM.
`O=C1C2CC3C(CC2C(=O)[N]1[Sn]([c]1ccccc1)([c]1ccccc1)[c]1ccccc1)C1(Cl)C(Cl)=C(Cl)C3(Cl)C1(Cl)Cl` (stereo unspecified): the GI50 – broadly, the concentration that inhibits growth by half – in the experiment with SK-MEL-5 melanoma was 0.145 µM; with A498 renal, 0.12 µM; in the experiment with NCI-H522 lung it was 0.0924 µM; in the experiment on SK-OV-3 ovarian it was 0.137 µM; in the experiment on CCRF-CEM leukemia, 0.0645 µM; with HL-60(TB) leukemia it was 0.176 µM. In addition, the GI50 in the experiment on A549 NSCLC is 0.14 µM. Besides, the TGI in the experiment with SK-MEL-5 melanoma turned out to be 0.301 µM; with A498 renal it was 0.276 µM; in the experiment with NCI-H522 lung it was 0.226 µM; in the experiment with SK-OV-3 ovarian, 0.353 µM; in the experiment with CCRF-CEM leukemia it was 0.371 µM; in the experiment on HL-60(TB) leukemia, 0.497 µM. In addition, the TGI with A549 NSCLC worked out at 0.347 µM.
In the case of `O=C1C=C(Nc2ccccc2)c2ncccc2C1=O`, the concentration for 50% growth inhibition (GI50) in the experiment with SK-MEL-5 melanoma was 0.177 µM; in the experiment with NCI-H460 lung it was 0.35 µM; in the experiment with A498 renal, 1.64 µM; with EKVX NSCLC it was 1.37 µM; with NCI-H522 lung, 0.704 µM; in the experiment on SK-OV-3 ovarian, 1.75 µM. In addition, the figures for the GI50 in the experiment on HL-60(TB) leukemia and in the experiment with A549 NSCLC were 0.842 µM and 0.476 µM, respectively. The TGI was 0.318 µM with SK-MEL-5 melanoma; 1.11 µM in the experiment on NCI-H460 lung; 3 µM with A498 renal; 2.81 µM in the experiment on EKVX NSCLC; 2.44 µM with NCI-H522 lung; 3.16 µM in the experiment with SK-OV-3 ovarian. For the same compound, the figures for the TGI with HL-60(TB) leukemia and with A549 NSCLC were 3.84 µM and 2.3 µM, respectively.
On to `O=S(=O)(/C=C/C=C/S(=O)(=O)c1ccccc1)c1ccccc1`, for which the GI50 was 1.49 µM in the experiment on SK-MEL-5 melanoma; 4.01 µM with NCI-H460 lung; 0.196 µM in the experiment on NCI-H522 lung; 0.188 µM in the experiment on HL-60(TB) leukemia; 3.97 µM with A549 NSCLC. Also, the total growth inhibition concentration (TGI) is 2.68 µM and 2.98 µM with SK-MEL-5 melanoma; 16.9 µM in the experiment with NCI-H460 lung; 3.53 µM in the experiment on EKVX NSCLC; 0.728 µM and 0.601 µM with NCI-H522 lung; 19.9 µM in the experiment with SK-OV-3 ovarian; 0.691 µM and 0.424 µM in the experiment with CCRF-CEM leukemia. The TGI in the experiment with HL-60(TB) leukemia was 2.04 µM and 0.518 µM; in the experiment on A549 NSCLC, 15.2 µM.
With `CCc1ccc(C2=C/C(=C/c3ccc(Cl)cc3)C(=O)N2CCc2ccc(S(N)(=O)=O)cc2)cc1`, the GI50 is 1.63 µM in the experiment on SK-MEL-5 melanoma; 2.62 µM in the experiment with EKVX NSCLC; 2.55 µM with NCI-H522 lung; 3.11 µM in the experiment with SK-OV-3 ovarian; 3.44 µM with CCRF-CEM leukemia; 2.12 µM in the experiment with HL-60(TB) leukemia. Moreover, the GI50 in the experiment on A549 NSCLC is 2.6 µM. Besides, the TGI in the experiment on SK-MEL-5 melanoma stood at 3.07 µM; in the experiment with EKVX NSCLC, 10 µM; with NCI-H522 lung it was 7.39 µM; with SK-OV-3 ovarian it was 9.15 µM; with CCRF-CEM leukemia it was 32.8 µM; in the experiment on HL-60(TB) leukemia, 5.35 µM. For the same compound, the TGI with A549 NSCLC worked out at 7.37 µM.
Consider `CCN1C(=O)N(CC)C2C1NN=c1s/c(=C3\C(=O)N(CCC(C)C)c4ccccc43)c(=O)n12` (stereo unspecified), for which the GI50 in the experiment on SK-MEL-5 melanoma is 1.55 µM; in the experiment with A498 renal it was 0.477 µM; with EKVX NSCLC, 1.34 µM; in the experiment with NCI-H522 lung, 1.01 µM; in the experiment on SK-OV-3 ovarian, 2.53 µM; in the experiment with CCRF-CEM leukemia, 2.66 µM. Also, in the experiment on HL-60(TB) leukemia, the GI50 was 2.12 µM. Moreover, the TGI in the experiment on SK-MEL-5 melanoma was 3.41 µM; with A498 renal, 2.59 µM; in the experiment on EKVX NSCLC, > 100 µM; with NCI-H522 lung, 4.18 µM; with SK-OV-3 ovarian, 18 µM; with CCRF-CEM leukemia, > 100 µM. This compound also yielded a TGI in the experiment on HL-60(TB) leukemia of 4.5 µM.
On to `COc1cc2[nH]c(C(=O)c3cc(OC)c(OC)c(OC)c3)c(N)c2cc1C#CCO`, for which the GI50 is 0.087 µM in the experiment with SK-MEL-5 melanoma; 0.394 µM with NCI-H460 lung; 0.23 µM in the experiment with A498 renal; 0.482 µM in the experiment on SK-OV-3 ovarian; 0.309 µM with CCRF-CEM leukemia; 0.313 µM in the experiment on HL-60(TB) leukemia. Also, the GI50 with A549 NSCLC was 0.969 µM. Moreover, the TGI in the experiment with SK-MEL-5 melanoma is 1.3 µM; with NCI-H460 lung, > 100 µM; in the experiment with A498 renal it was 2.14 µM; in the experiment with SK-OV-3 ovarian, > 100 µM; in the experiment on CCRF-CEM leukemia it was > 100 µM; in the experiment on HL-60(TB) leukemia it was 0.956 µM. For the same compound, the TGI in the experiment with A549 NSCLC was > 100 µM.
For `O=C(O)C1C2C=CC(O2)C1C(=O)Nc1ccccc1` (stereo unspecified), the TGI with SK-MEL-5 melanoma, in the experiment on A498 renal, in the experiment on EKVX NSCLC, in the experiment on NCI-H522 lung, with SK-OV-3 ovarian and with CCRF-CEM leukemia was > 100 µM each time. For the same compound, the TGI in the experiment on A549 NSCLC was > 100 µM.
Consider `O=C(O)C(=O)Cc1ccc2c(c1)OCO2`, for which the TGI in the experiment on SK-MEL-5 melanoma was > 100 µM; in the experiment on NCI-H460 lung, > 100 µM; in the experiment with A498 renal it was > 100 µM; in the experiment with EKVX NSCLC, > 100 µM; in the experiment on SK-OV-3 ovarian it was > 100 µM; with CCRF-CEM leukemia, 67.1 µM. Besides, the TGI with HL-60(TB) leukemia and in the experiment on A549 NSCLC was > 100 µM in each case.
Regarding `CCCCCCCCCCCCCOC(=O)c1c(C)[nH]c(/C=C2\N=C(c3ccc[nH]3)C=C2OC)c1C`, the GI50 was 0.0194 µM with SK-MEL-5 melanoma; < 0.017 µM in the experiment with NCI-H460 lung; 0.481 µM in the experiment on A498 renal; 0.215 µM in the experiment on NCI-H522 lung; 2.8 µM in the experiment with SK-OV-3 ovarian; 0.0303 µM with CCRF-CEM leukemia. Moreover, the 50% growth inhibitory concentration (GI50) was 0.0182 µM with HL-60(TB) leukemia and 0.0419 µM in the experiment on A549 NSCLC. For the same compound, the TGI with SK-MEL-5 melanoma was 0.0911 µM; with NCI-H460 lung, > 100 µM; in the experiment on A498 renal it was 10.8 µM; in the experiment with NCI-H522 lung, > 64.3 µM; in the experiment on SK-OV-3 ovarian, 37.1 µM; in the experiment with CCRF-CEM leukemia, > 100 µM. Moreover, the TGI with A549 NSCLC was 0.505 µM.
Consider `Cc1ccc(-c2csc(N(C(=O)N3CCN(c4cc5c(cc4F)c(=O)c(C(=O)O)cn5C4CC4)CC3)c3ccccc3)n2)cc1`, for which the GI50 was 0.541 µM in the experiment with SK-MEL-5 melanoma; 0.331 µM with NCI-H460 lung; 0.0363 µM in the experiment with A498 renal; 0.381 µM in the experiment on EKVX NSCLC; 0.292 µM with NCI-H522 lung; 0.252 µM in the experiment on SK-OV-3 ovarian. In the experiment with A549 NSCLC, the GI50 is 0.372 µM. Also, the TGI is > 100 µM with SK-MEL-5 melanoma; > 100 µM with NCI-H460 lung; 0.443 µM with A498 renal; > 100 µM in the experiment with EKVX NSCLC; > 100 µM in the experiment on NCI-H522 lung; 0.787 µM in the experiment on SK-OV-3 ovarian. The TGI in the experiment on A549 NSCLC is > 100 µM.
